Test [1] deals with quinone reductase (QR). Put plainly: QR activity in rat tissues after dietary administration. It counts as in vivo, Sprague Dawley rat. On the procedure:
Analysis of Quinone Reductase Activity and Glutathione Level in Rat Tissues. Spraque Dawley rats (n=10) at 43 days of age were placed on an appropriate experimental diet (5000, 2500, 1250, 625, and 312.5 mg/kg diet of 4'-BF) for three weeks. After three weeks, animals were sacrificed by carbon dioxide (CO2) asphyxiation. The livers, mammary glands, colons, stomachs, and lungs were collected, rinsed with saline, and frozen in liquid nitrogen and stored at -80° C. until enzyme activities were determined. Individual tissues (except mammary glands) were homogenized in 0.25 M sucrose and centrifuged at 15,000×g for 30 min at 4° C. The supernatant fluids were collected, 20% volume of 0.1 M CaCl2 in 0.25 M sucrose were added. After incubation at 0° C. for 30 min and further centrifuging at 15,000×g for 30 min at 4° C., a clear cytosolic fraction was used for enzyme assay. Mammary glands of each animal were pooled, homogenized in 1 ml ice-cold 0.1 M phosphate buffer pH 6.5 and centrifuged (15,000×g, 30 min at 4° C.), a clear supernatant suitable for enzyme assay resulted. Dicumarol-sensitive QR activity was measured in duplicate in 50 μl of suitable dilution of the tissue supernatant as described for the cellular system. GSH levels were assayed in duplicate using 96-well plates. […] The plates were shaken for 5-10 min and the extent of 2-nitro-5-thiobenzoic acid formation was monitored at 405 nm. A GSH standard curve was used to calculate the GSH content. GSH levels were expressed as nmol/mg protein.
Induction of Quinone Reductase Activity and Glutathione Level in Rat Tissues. Based on the results in cell cultures, 4'-BF was further evaluated for its inducing potency in rat liver, mammary gland, colon, stomach, and lung. […] The concentration of 4'-BF for maximum induction of GSH was about 1250 to about 2500 mg/kg diet, but varied for different organ sites.

Test [2] has as its system quinone reductase (QR). The experiment in a line: Effect on DMBA-induced QR activity in rat tissues. It counts as in vivo, Sprague Dawley rat. To be noted: liver and mammary gland. On the procedure: Effect of 4'-Bromoflavone on DMBA-induced QR Activity and Cytochrome P4501A1 Activity in Rat Tissues. At 43 days of age, Sprague Dawley rats were placed on various experimental diets (Table 1) for 1 week prior to administration of a single (i.g.) dose of DMBA (15 mg). Animals then were weighed and sacrificed by CO2 asphyxiation. Tissues (livers and mammary glands) were collected, rinsed with saline, frozen in liquid nitrogen, and stored at -80° C. until analysis. Individual tissues were homogenized in 0.05 M Tris-HCl buffer (pH 7.5) containing 0.25 M sucrose. Cytosolic and microsomal fractions were obtained through differential centrifugation. Dicumarol-sensitive QR activity was measured as described above using 50 μl of suitably diluted cytosol supernatants (in duplicate). Cytochrome P4501A1-mediated EROD activities were determined as described previously in R. Poul et al. Anal. Biochem., 107, pp. 265-275 (1980) and S. Sharma et al., Cancer Res., 54, pp. […] (1994), with slight modifications using suitably diluted microsomal protein. Enzyme activities were expressed as nmol/mg protein/min. Protein content was determined using Bradford reagent with BSA as standard, and data were presented as mean ±SE and analyzed using Student's t test (n=5).
Test animals were placed on various experimental diets for one week (Table 1) prior to a single i.g. dose of DMBA (15 mg). […]

The subject of test [3] is HepG2 cells (B[α]P-DNA adducts). The experiment in a line: Binding of metabolically activated [3H]B[α]P to DNA of cultured HepG2 cells. It counts as cell-based. The note with it: Homo sapiens, read-out: IC50, formation of B[α]P-DNA adducts, HepG2. On the procedure:
Effect of 4'-BF on the Binding of Metabolically Activated [^3 H]B[α]P to DNA of Cultured Cells. HepG2 cells or MCF-7 cells were plated at a density of 1×10^6 cells/dish in 6 cm Petri dishes and allowed to incubate for 18 hours. Fresh media containing test samples were added to the cells 2 hours prior to the addition of 1 μM [^3 H]B[α]P (10 Ci/mmol) The test compound and tritiated carcinogen then were incubated for 6 hours. Following incubation, genomic DNA was extracted by the method described by Sharma et al., with minor modifications. Briefly, the cells were washed three times with PBS and harvested by incubation with 0.5 ml of proteinase K (100 μg/ml) in 0.2 M Tris-0.1 M EDTA (pH 8.5) for 10 min at 37° C. The cells were gently scraped from the dishes, transferred to 50 μl of 10% SDS solution, and incubated for 3 hours at 55° C. […] An aliquot of harvested DNA was used for measuring the relative absorbencies at 260 and 280 nm (A2360 nm/A2380 nm=1.7-1.9), and the DNA content was determined by absorbance at 260 nm (1 A2360 nm unit=50 μg). The remaining sample was used for the determination of radioactivity. All experiments were performed in triplicate; percentage inhibition of carcinogen-DNA binding mediated by test samples was calculated as follows: % inhibition=[1-(dpm per μg DNA test cells/dpm per μg DNA control cells)]×100.

Test [4] deals with quinone reductase (QR). The experiment in a line: Induction of quinone reductase (QR) in mouse liver and mammary glands (Table 3). It counts as in vivo.

Consider `O=c1cc(-c2ccc(Br)cc2)oc2ccccc12` [4'-Bromoflavone], for which the “QR activity induction, colon” value in the test with quinone reductase (QR) [1] (colon, 312.5-5000 mg/kg diet, 3 weeks) is 2.09-4.81 fold. The “QR activity in rat tissues” value in the test on quinone reductase (QR) [1] (liver, mammary gland, colon, stomach, lung, short-term dietary, P<0.0001) was “significantly increased”. Further, in the test with quinone reductase (QR) [1] (liver, 312.5-5000 mg/kg diet, 3 weeks), the “QR activity induction, liver” value is 2.22-7.60 fold. Moreover, the “QR activity induction, lung” value in the test on quinone reductase (QR) [1] (lung, 312.5-5000 mg/kg diet, 3 weeks) is listed as 2.18-5.25 fold. Moreover, the “QR activity induction, mammary gland” value in the test with quinone reductase (QR) [1] (mammary gland, 312.5-5000 mg/kg diet, 3 weeks) is listed as 1.59-5.52 fold. Besides, the “QR activity induction, stomach” value in the test on quinone reductase (QR) [1] (stomach, 312.5-5000 mg/kg diet, 3 weeks) is on record as 1.97-3.42 fold. In addition, the “QR activity vs control (basal diet)” value in the test with quinone reductase (QR) [2] (1 week diet, DMBA 15 mg i.g.) is reported as “significantly induced”. The “QR activity vs DMBA alone” value in the test on quinone reductase (QR) [2] (DMBA and 4'-BF or 4'-BF alone) is recorded as “significant dose-dependent induction”. The 50% inhibitory concentration (IC50) in test [3] was about 3.1 µM. In addition, in the test on quinone reductase (QR) [4] (liver), the “QR (Treated/Control), Liver” value worked out at 5.27. Also, in the test on quinone reductase (QR) [4] (mammary gland), the “QR (Treated/Control), Mammary Gland” value is recorded as 2.66.

The IC50 is the midpoint of a concentration-inhibition curve.
